MIC and IC50 data for 7 compounds are collected here from ChEMBL document CHEMBL1154575, “Bioactive 12-oleanene triterpene and secotriterpene acids from Maytenus undata” (J Nat Prod, 2000).

Values after ≈ are worked out from the molar mass of the structure shown. Where only a bound is given, the exact number is not on record here.

In data set [1] the test system is Staphylococcus aureus. Nature of the data set: Antibacterial activity against Staphylococcus aureus ATCC 6535 after 48 hrs by agar dilution method. Format: functional. The settings on record: ATCC 6535, 48 h.
For data set [2], the system named is Staphylococcus aureus. As to the kind of experiment: Antibacterial activity against methicillin-resistant Staphylococcus aureus ATCC 33591 after 48 hrs by agar dilution method. Format: functional. The settings on record: ATCC 33591, 48 h. (Agar dilution tests growth on a series of plates holding different concentrations.)
In the next data set the test system is Pseudomonas aeruginosa. Nature of the data set: Antibacterial activity against Pseudomonas aeruginosa ATCC 15442 after 48 hrs by agar dilution method. Format: functional. The settings on record: ATCC 15442, 48 h.
Data set [3] can be described thus: Antiinflammatory activity in rat neonatal brain microglia cells assessed as effect on phorbol-12-myristate-13-acetate-stimulated superoxide release. Type of data set: functional, cell-based.
Data set [4] can be described thus: Toxicity against rat neonatal brain microglia cells assessed as phorbol-12-myristate-13-acetate-stimulated LDH release. Type of data set: cell-based.
Data set [5] can be described thus: Antiinflammatory activity in rat neonatal brain microglia cells assessed as effect on phorbol-12-myristate-13-acetate-stimulated thromboxane B2 release. Type of data set: functional, cell-based.

The MIC is the lowest concentration that inhibits growth of the organism. High values mean weaker potency, low ones greater potency. For the compound `CCO[C@@H]1C=C2[C@@H]3C[C@@](C)(C(=O)O)CC[C@]3(C)CC[C@@]2(C)[C@]2(C)CC[C@H]3C(C)(C)C(=O)CC[C@]3(C)[C@@H]12`, the minimal inhibitory concentration (MIC) against Staphylococcus aureus [1] is more than 12.5 µg/mL; in the data set with Staphylococcus aureus [2], 50 µg/mL (≈ 100 µM); in the data set on Pseudomonas aeruginosa, 12.5 µg/mL (≈ 25.1 µM).
A word on the IC50: it is the concentration at which inhibition is half-maximal. Regarding `CC1(C)C(=O)CC[C@]2(C)C3=CC=C4[C@@H]5C[C@@](C)(C(=O)O)CC[C@]5(C)CC[C@@]4(C)[C@]3(C)CC[C@@H]12`, the MIC in the data set on Staphylococcus aureus [1] was more than 50 µg/mL; with Staphylococcus aureus [2] it was more than 50 µg/mL; against Pseudomonas aeruginosa it was 6.25 µg/mL (≈ 13.8 µM). In addition, the IC50 in data set [3] was more than 100 µM; in data set [4], more than 30 µM; in data set [5], more than 100 µM.
Take `CO[C@@H]1C=C2[C@@H]3C[C@@](C)(C(=O)O)CC[C@]3(C)CC[C@@]2(C)[C@]2(C)CC[C@H]3C(C)(C)C(=O)CC[C@]3(C)[C@@H]12`: the MIC was more than 10 µg/mL against Staphylococcus aureus [1], more than 10 µg/mL against Staphylococcus aureus [2] and 10 µg/mL (≈ 20.6 µM) against Pseudomonas aeruginosa. The IC50 was 15 µM in data set [3], more than 30 µM in data set [4] and 5 µM in data set [5].
As to `C=C(C)[C@@H]1CC[C@]2(C)[C@H](CC=C3[C@@H]4C[C@@](C)(C(=O)O)CC[C@]4(C)CC[C@]32C)[C@@]1(C)CCC(=O)O` [KOETJAPIC ACID], the results for the MIC against Staphylococcus aureus [1], with Staphylococcus aureus [2] and against Pseudomonas aeruginosa were more than 6.25 µg/mL, 12.5 µg/mL (≈ 26.6 µM) and 6.25 µg/mL (≈ 13.3 µM), respectively.
For `CC1(C)C(=O)CC[C@]2(C)[C@H]3C(=O)C=C4[C@@H]5C[C@@](C)(C(=O)O)CC[C@]5(C)CC[C@@]4(C)[C@]3(C)CC[C@@H]12`, the half-inhibitory concentration (IC50) in data set [3] is 6.7 µM; in data set [4] it was more than 10 µM; in data set [5], 2.3 µM.
`C=C(C)[C@@H]1CC[C@]2(C)[C@H](CC=C3[C@@H]4C[C@](C)(C(=O)O)CC[C@]4(C)CC[C@]32C)[C@@]1(C)CCC(=O)O`: the results for the MIC against Staphylococcus aureus [1], in the data set on Staphylococcus aureus [2] and against Pseudomonas aeruginosa were more than 3.25 µg/mL, more than 6.25 µg/mL and 6.25 µg/mL (≈ 13.3 µM), respectively. For the same compound, the values for the 50% inhibitory concentration (IC50) in data set [3], in data set [4] and in data set [5] were 1.9 µM, more than 1 µM and 0.5 µM, respectively.
Take `CC1(C)C(=O)CC[C@]2(C)[C@H]3[C@H](O)C=C4[C@@H]5C[C@@](C)(C(=O)O)CC[C@]5(C)CC[C@@]4(C)[C@]3(C)CC[C@@H]12`: the minimal inhibitory concentration (MIC) was more than 6.25 µg/mL in the data set on Staphylococcus aureus [1], more than 6.25 µg/mL in the data set on Staphylococcus aureus [2] and more than 6.26 µg/mL in the data set with Pseudomonas aeruginosa. In addition, the figures for the IC50 in data set [3], in data set [4] and in data set [5] were 3.2 µM, more than 1 µM and 3.6 µM, respectively.
